According to patent US20180303141A1, “FLAVOR COMPOSITION FOR FOOD PRODUCTS” (NESTEC S.A., priority 2015, published 2018):

How the values were obtained:
[1] = test system: umami taste; experiment: Fractionation of aqueous pea extract and analysis of the fractions with strong umami taste; settings: compound identified in pea extract
Procedure: The applicant prepared an aqueous extract of pea, preferably green pea and then subjected that extract to fractionation.
The compounds were isolated and characterized using two-dimensional preparative chromatography. For example, size exclusion chromatography in the first dimension, then hydrophilic interaction column (normal phase) in a second dimension. Identification of compounds was carried out using conventional analytical methods such as LC-MS or NMR.

[2] = test system: sensory panel of 6 trained persons; experiment: Sensory evaluation of pea extract dissolved in water, umami intensity on a 3-point scale versus a control sample; assay type: in vivo, human; settings: calculated for the example with pea extract containing 0.5% beta-R in water
Procedure: Different pea extract from Pisum sativum containing the composition as described in table 1 has been used to define the threshold concentrates in a sensory panel of 6 trained persons. The technical tasting was measured versus a control sample. Tasters were asked to judge the different products according to umami intensity on a 3-point scale.

[3] = test system: panel of 12 experienced tasters; experiment: Comparison of the umami impression of a standard bouillon containing MSG and a bouillon with pea extract but no MSG (scale 0-10); assay type: in vivo, human; settings: standard bouillon containing MSG; average of 12 tasters, 0=no umami, 10=strong umami
Description: A standard bouillon containing no MSG but added pea extract was compared to the same standard bouillon containing MSG. A trained panel rated the bouillons on a scale from 0 (no umami) to 10 (strong umami). This gives evidence that the pea extract delivers a strong umami even it is less than to MSG itself, but the taste is received as being more natural and round mouthfeel instead of using MSG alone. […] The pea extract used was obtained by a blanching water process containing the composition as described in table 1. The results given are the average rating of a panel of 12 experienced tasters rating the umami intensity (0=no umami; 10=strong umami).

[4] = test system: panel of six experienced tasters; experiment: Evaluation of the umami impression of the pea extract in different bouillon bases (scale 0-3); assay type: in vivo, human; settings: bouillon base containing sub-threshold MSG (60 mg/L), no pea extract; average of six tasters, 0=no umami, 3=strong umami
Description: It is clear from Example 3 that the umami impression cannot be explained solely by the MSG content. The MSG taste threshold is described in the literature as between 0.255 and 0.5 g MSG/L (1.5-3 mmol/L) (Behrens, M., et al. (2011) Sweet and Umami Taste: Natural Products, Their Chemosensory Targets, and Beyond; Angew. Chem. Int. Ed., 50, 2220-2242). Therefore the MSG content for the Pisum sativum extract is below the taste threshold. To confirm the umami taste of the pea extract, all MSG containing ingredients (MSG, ribonucleotides and yeast extract) were removed from a standard bouillon. Pea extract was added. […] The effect of the addition of a pea extract to a bouillon base (which has no intrinsic umami taste) is to provide a strong umami taste. It is clear that the pea extract alone promotes umami taste, and that this effect is even greater in the presence of MSG.
The pea extract used was obtained by a blanching water process containing the composition as described in table 1.
The results given are the average rating of a panel of six experienced tasters rating the umami intensity (0=no umami; 1=umami barely perceivable; 2=umami clearly perceivable; 3=strong umami).

## (5R)-(β-D-glucopyranosyloxy)-1,5-dihydro-2H-pyrrol-2-one [beta-R]
[1]
  Contribution to umami taste (in words): responsible to provide and enhance an umami taste
[2]
  threshold concentrate: 147 ppm

## N[C@@H](CCC(=O)O)C(=O)[O-].[Na+] [MSG, Monosodium glutamate]
[3]
  Umami Rating: 5
[4]
  Umami Rating: 0
